Data taken from patent US11306036B2, “Composition containing a urease inhibitor” (RHODIA OPERATIONS, priority 2016, dated 2022).

Test: Stability test: remaining NBPT content on treated granulated urea after storage (HPLC)
Type: physicochemical
Conditions: storage at 40° C., 50% humidity, up to 90 days
Method: The sample was prepared by mixing 6.00 g of TMBPA and 8.11 g of NBPT (98% purity) in 15.89 g of Augeo® SL 191 at a temperature of 25° C. The concentration of TMBPA was 20% and the concentration of NBPT was 26.5%. Then, the solution prepared was sprayed onto 50 g of granulated urea at a dosage of 0.3% of urea weight.
For stability tests, the treated granulated urea was kept at 40° C. and an atmospheric humidity of 50% for 30 days, 60 days and 90 days, respectively. The remaining NBPT content (expressed as percentages based on initial NBPT content) was measured by using HPLC analysis according to the standard procedure.

Q: For `CCCCNP(N)(N)=S` [NBPT, N-(n-butyl)thiophosphoric acid triamide], which “stability of NBPT after application to the urea fertilizer (in words)” value is on record?
A: poor stability
